Measurements reported in ChEMBL document CHEMBL1255230, “Chemical inhibitor of nonapoptotic cell death with therapeutic potential for ischemic brain injury” (Nat Chem Biol, 2005).
Calls of active or inactive are those of the source. The calls are words filed in the database; no cut-off is given here.

Key:
Jurkat [1] = assay: Effect on cell cycle in human Jurkat cells deficient in FADD assessed as cells in G2/M phase in presence of TNFalpha relative to control; format: functional
U-937 = assay: Inhibition of oxidative stress induced necrosis in human U937 cells after 24 hrs in presence of menadione; format: functional, cell-based
[2] = Inhibition of death receptor signaling mediated necroptotic cell death in human U937 cell assessed as cell viability after 72 hrs by ATP based viability assay in presence of TNFalpha and zVAD.fmk; conditions: U-937
Jurkat [3] = assay: Inhibition of necrosis in human Jurkat cells deficient in FADD assessed as inhibition of early loss of plasma membrane integrity by bright field microscopy in presence of TNFalpha; format: functional, cell-based
Jurkat [4] = assay: Effect on apoptosis in human Jurkat cell assessed as cytoplasm condensation by electron microscopy in presence of FasL and CHX; format: functional, cell-based
[5] = Inhibition of death receptor signaling mediated necrotic cell death in human Jurkat cell assessed as cell viability after 30 hrs by ATP based viability assay in presence of FasL, CHX, zVAD.fmk
[6] = Inhibition of death receptor signaling mediated necroptotic cell death in mouse 3T3 cells assessed as decreased levels of PE-conjugated autophagy marker LC3-II after 24 hrs by Western blot method in presence of FasL and zVAD-fmk; format: cell-based; conditions: NIH3T3
[7] = Inhibition of death receptor signaling mediated necroptotic cell death in human Jurkat cell deficient in FADD assessed as cytoprotection after 30 hrs by in presence of TNFalpha; format: cell-based
[8] = Inhibition of death receptor signaling mediated apoptosis in human Jurkat cell assessed as inhibition of plasma membrane permeability after 24 hrs by in presence of FasL, CHX and zVAD.fmk; format: cell-based
[9] = Inhibition of death receptor signaling mediated necroptotic cell death in human Jurkat cells deficient in FADD assessed as decreased levels of PE-conjugated LC3-II (autophagy marker) after 24 hrs by Western blot method in presence of TNFalpha; format: cell-based
[10] = Inhibition of death receptor signaling mediated necroptotic cell death in human Jurkat cell deficient in FADD assessed as cell viability after 30 hrs by ATP based viability assay in presence of TNFalpha
Jurkat [11] = assay: Effect on cell cycle in human Jurkat cells assessed as cells in S phase; format: functional, cell-based
NIH3T3 [12] = assay: Effect on microtubule cytoskeleton in mouse 3T3 cells after 24 hrs by anti-tubulin immunofluorescence method in presence of TNFalpha and zVAD-fmk; format: functional, cell-based
Jurkat [13] = assay: Effect on apoptosis in human Jurkat cell assessed as nuclear fragmentation by electron microscopy in presence of FasL and CHX; format: functional, cell-based
[14] = Inhibition of death receptor signaling mediated necroptotic cell death in mouse 3T3 cells assessed as decreased levels of PE-conjugated autophagy marker LC3-II after 24 hrs by Western blot method in presence of rapamycin; format: cell-based; conditions: NIH3T3
NIH3T3 [15] = assay: Effect on actin cytoskeleton in mouse 3T3 cells after 24 hrs by phalloidin-TRITC staining in presence of TNFalpha and zVAD-fmk; format: functional, cell-based
[16] = Inhibition of death receptor signaling mediated necroptotic cell death in human Jurkat cell deficient in FADD assessed as changes in cell size after 24 hrs by forward and side scatter FACS analysis in presence of TNFalpha; format: cell-based
Jurkat [17] = assay: Effect on cell cycle in human Jurkat cells deficient in FADD assessed as cells in G1 phase in presence of TNFalpha relative to control; format: functional
Jurkat [18] = assay: Effect on cell cycle in human Jurkat cells deficient in FADD assessed as cells in G1 phase relative to control; format: functional
[19] = Inhibition of death receptor signaling mediated necroptotic cell death in human Jurkat cells deficient in FADD and expressing FKBP12-based dimerization domain assessed as cell viability after 48 hrs by FACS in presence of AP1510
[20] = Inhibition of death receptor signaling mediated necroptotic cell death in human U937 cells assessed as cell viability after 48 hrs by ATP based viability assay in presence of TNFalpha and zVAD-fmk; conditions: U-937
Mus musculus = assay: Inhibition of necroptosis in icv dosed mouse middle cerebral artery occlusion induced ischemic injury model assessed as reduction of infarct volume; format: functional, organism-based
[21] = Inhibition of death receptor signaling mediated necroptotic cell death in human Jurkat cell deficient in FADD assessed as inhibition of mitochondrial dysfunction after 24 hrs by in presence of TNFalpha; format: cell-based
Jurkat [22] = assay: increase in intracellular ROS level in human Jurkat cells; format: functional, cell-based
Jurkat [23] = assay: Inhibition of necrosis in human Jurkat cells deficient in FADD assessed as inhibition of nuclear condensation by bright field microscopy in presence of TNFalpha; format: functional, cell-based
[24] = Inhibition of death receptor signaling mediated necrotic cell death in mouse L929 cells assessed as cell viability after 24 hrs by ATP based viability assay in presence of TNFalpha
Jurkat [25] = assay: Induction of proliferative capacity in necroptotic human Jurkat cell deficient in FADD assessed as cell viability; format: functional, cell-based
[26] = Inhibition of death receptor signaling mediated necroptotic cell death in human Jurkat cells deficient in FADD and expressing RIP kinase assessed as cell viability after 48 hrs by FACS in presence of AP1510; format: cell-based
NIH3T3 [27] = assay: Effect on morphology of endoplasmic reticulum in mouse 3T3 cells after 24 hrs by anti-KDEL immunofluorescence in presence of TNFalpha and zVAD-fmk; format: functional, cell-based
[28] = Inhibition of death receptor signaling mediated necrotic cell death in SV40 transformed mouse MEF cells assessed as cell viability after 16 hrs by ATP based viability assay in presence of TNFalpha, CHX and zVAD.fmk
Jurkat [29] = assay: Effect on cell cycle in human Jurkat cells deficient in FADD assessed as cells in sub-G1 phase in presence of TNFalpha relative to control; format: functional
[30] = Inhibition of death receptor signaling mediated apoptosis in human Jurkat cell assessed as cytoprotection after 30 hrs by in presence of FasL, CHX and zVAD.fmk; format: cell-based

For CN1C(=O)C(Cc2c[nH]c3ccccc23)NC1=S (stereo not drawn) [NECROSTATIN], the Activity (Jurkat [1]) was 12.1%, the inhibition (U-937) was “inactive” and the inhibition [2] was “Dose-dependent effect”. For the same compound, the inhibition (Jurkat [3]) was “Active”, the Activity (Jurkat [4]) was “inactive” and the inhibition [5] was “Active”. For the same compound, the inhibition [6] was “Active”, the inhibition [7] was “Active” and the inhibition [8] was “Active”. For the same compound, the inhibition [9] was “Active”, the IC50 [10] was 0.494 µM and the inhibition [10] was “Active”. The Activity (Jurkat [11]) was “inactive”, the Activity (NIH3T3 [12]) was “inactive” and the Activity (Jurkat [13]) was “inactive”. For the same compound, the inhibition [14] was “Active”, the Activity (NIH3T3 [15]) was “inactive” and the inhibition [16] was “Active”. The Activity (Jurkat [17]) was 43.1%, the Activity (Jurkat [18]) was 41.5% and the inhibition [19] was “Active”. The inhibition [20] was “Active”, the inhibition (Mus musculus) was “Active” and the inhibition [21] was “Active”. For the same compound, the Activity (Jurkat [22]) was “inactive”, the inhibition (Jurkat [23]) was “Active” and the inhibition [24] was “Active”. The Activity (Jurkat [25]) was “Active”, the inhibition [26] was “Active” and the Activity (NIH3T3 [27]) was “inactive”. The inhibition [28] was “Active”, the Activity (Jurkat [29]) was 0.7% and the inhibition [30] was “inactive”.
